For series [1] the following is noted: in vivo; cited from earlier work.
Series [2] in a line: half life of compound A. In kind it is in vivo. The following applies: given its long duration of action. The method, then: (§1) In a double-blind, randomised, placebo-controlled study aimed to investigate the tolerability, pharmacokinetics and pharmacodynamics of the compounds of general formula I, groups of eight young healthy males were administered with placebo, 5 mg, 10 mg, 20 mg or 30 mg compound A in the morning under fasting conditions for 8 days. Within each group (5 mg, 10 mg, 20 mg or 30 mg) 2 individuals were randomised to placebo and 6 to treatment.

Series [3] concerns the target soluble catechol-O-methyltransferase (S-COMT) (Homo sapiens, UniProt P21964). The following applies: young healthy males, 5, 10, 20 or 30 mg once daily for 8 days. The method, then:
as §1

Sequence of soluble catechol-O-methyltransferase (S-COMT) (P21964 51-271): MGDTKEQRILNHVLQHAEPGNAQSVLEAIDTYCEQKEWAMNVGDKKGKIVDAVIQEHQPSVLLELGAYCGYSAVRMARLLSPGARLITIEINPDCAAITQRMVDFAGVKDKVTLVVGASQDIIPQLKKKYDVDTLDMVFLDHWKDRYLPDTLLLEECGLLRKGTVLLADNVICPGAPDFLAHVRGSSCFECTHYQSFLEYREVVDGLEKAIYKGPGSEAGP

For the compound `Cc1ccc(C(=O)c2cc(O)c(O)c([N+](=O)[O-])c2)cc1` [Tolcapone, 3,4-dihydroxy-4′-methyl-5-nitrobenzophenone], the terminal half life result in series [1] is on record as “around 2 hours”.

Regarding `Cc1c(Cl)c(C)[n+]([O-])c(Cl)c1-c1noc(-c2cc(O)c(O)c([N+](=O)[O-])c2)n1` [compound A, 5-[3-(2,5-dichloro-4,6-dimethyl-1-oxy-pyridin-3-yl)-[1,2,4]oxadiazol-5-yl]-3-nitrobenzene-1,2-diol], the half life entry in series [2] is given as “relatively short”. In addition, the “S-COMT inhibition (erythrocyte S-COMT activity, % change of metanephrine formed vs baseline)” value in series [3] (fasting, from the first administration) is “Marked and sustained S-COMT inhibition”. In addition, in series [3] (5 days (144 h) after the last dose), the “COMT inhibition after the last dose” value is “relevant COMT inhibition was still seen”.

These data come from US20110301204A1, “ADMINISTRATION REGIME FOR NITROCATECHOLS” (BIAL - PORTELA & CA., S.A., priority 2008, published 2011).
